Results published in article PMC10673563, “In Vitro and In Vivo Biological Evaluation of Indole-thiazolidine-2,4-dione Derivatives as Tyrosinase Inhibitors” (Molecules, 2023).
One block for each molecule: values may come before it.

Assays:
Mushroom tyrosinase = target: T1, Mushroom tyrosinase (Agaricus bisporus, UniProt C7FF04); test: Tyrosinase inhibitory activity assay (L-DOPA, absorbance 475 nm); type: biochemical; conditions: for inhibition at 32 µM: initial concentration of 32 μM
T1 construct: purchased Sigma-Aldrich (Shanghai, China)
T1 sequence (C7FF04 1-392): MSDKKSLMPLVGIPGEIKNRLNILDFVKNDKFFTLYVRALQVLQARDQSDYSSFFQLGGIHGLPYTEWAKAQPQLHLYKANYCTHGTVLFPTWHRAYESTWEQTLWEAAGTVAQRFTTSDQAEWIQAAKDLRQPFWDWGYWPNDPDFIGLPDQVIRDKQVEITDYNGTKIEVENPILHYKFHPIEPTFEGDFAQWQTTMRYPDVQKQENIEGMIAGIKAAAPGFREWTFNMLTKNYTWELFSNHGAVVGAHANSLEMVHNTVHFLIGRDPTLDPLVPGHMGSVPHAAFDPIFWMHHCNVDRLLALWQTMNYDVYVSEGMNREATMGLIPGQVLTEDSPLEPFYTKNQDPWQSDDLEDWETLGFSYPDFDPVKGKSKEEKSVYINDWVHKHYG
Protocol: The tyrosinase inhibitory activities of compounds 5a~5z were determined according to previous reports. In brief, 10 μL of compound was added into 140 μL of tyrosinase, incubated for 5 min at room temperature. Then, 50 μL of L-DOPA was added, followed by the measurement of absorbance change at 475 nm. The inhibition rate at different concentrations was calculated and compared to the blank control.

[1] = test system: melanogenesis in B16F10 cells; test: Melanin content in B16F10 cells; type: cell-based; conditions: 16 and 32 μM; for melanogenesis in B16F10 cells: 48 h
Protocol: B16F10 cell treatment was consistent with the above method. The harvested cells were suspended into NaOH (1 M, 200 μL). After boiling for 1 h, the mixture was measured to determine the absorbance change at wavelength of 405 nm.

[2] = test system: melanogenesis in zebrafish; test: Melanin content in zebrafish (microscope, Image J); type: in vivo; conditions: for grayscale values of whole embryos / pigmentation of embryo (eyes, yolk sac, notum): compared to control embryo; for pigmentation of embryo (eyes, yolk sac, notum): embryo photos
Protocol: The embryos treated with compound 5w or kojic acid were observed under a microscope and the melanin content was assayed using Image J software.

[3] = test system: tyrosinase activity in zebrafish; test: Tyrosinase activity in zebrafish; type: in vivo; conditions: for tyrosinase activity in zebrafish: zebrafish embryos
Protocol: The embryos treated with compound 5w or kojic acid were lysed in PBS, followed by centrifugation to obtain the supernatant. The appropriate amount of supernatant, equal L-DOPA (5 mg/mL), was added and the absorbance at 475 nm was determined.

B16F10 cells = test: Cell cytotoxicity (MTT); type: cell-based; conditions: 4~32 μM, 48 h
Protocol: The effects of compound 5w and kojic acid on the cells’ viability were determined using the MTT method. B16F10 cells (5000 cells/well) were seeded into the 96-well plate for 24 h, followed by the treatment of compound 5w or kojic acid (4~32 μM) for another 48 h. Then, MTT solution (0.5 mg/mL) was added and incubated for 4 h. DMSO (100 μL) was used to dissolve the violet precipitates, and then the mixture was measured for its absorbance at 570 nm.

[4] = test system: tyrosinase activity in B16F10 cells; test: Tyrosinase activity in B16F10 cells; type: cell-based; conditions: 16 and 32 μM; for cellular tyrosinase activity: 48 h
Protocol: The tyrosinase inhibitory activity of 5w in B16F10 cells was determined. B16F10 cells (1 × 10^5 cells/well) were seeded into the 6-well plate for 24 h and subsequently treated with compound 5w or kojic acid for another 48 h. Then, the harvested cells were suspended into the appropriate amount of Triton X-100 (1%) and frozen for 1 h at −80 °C. After it had thawed, the mixture was centrifuged to collect the supernatant. Then, its protein concentration was determined using a BCA Kit. After 20 μL of L-DOPA (10 mM) was added into 80 μL of protein solution, the absorbance change at 475 nm was measured.

tyrosinase [5] = target: T2, tyrosinase (Agaricus bisporus, UniProt C7FF04); test: CD spectra, secondary structure content of tyrosinase; design: species or system mushroom
T2 construct: purchased Sigma-Aldrich (Shanghai, China)
Protocol: CD spectra, one widely used method for determining the secondary structure of protein, were applied to assay the effects of 5w on the conformation change of tyrosinase. The CD spectra of the tyrosinase–compound 5w mixture were monitored and two negative characteristic bands around 210 and 222 nm appeared (Figure 4), which represented typical features of α-helixes.
The CD spectra of tyrosinase (33 μM) and tyrosinase–compound 5w mixture were measured at room temperature, respectively, based on previous reports. The test wavelengths were 195~250 nm.
Target sequence in this assay (C7FF04 1-392): as above

tyrosinase [6] = target: T2, tyrosinase; test: Fluorescence quenching titration (Stern–Volmer); type: binding, mushroom
Protocol: Fluorescence quenching, an effective method for monitoring the binding of a compound to its target protein, was operated to examine the binding of compound 5w with tyrosinase.
For a further understanding of the binding process of compound 5w with tyrosinase, the fluorescence quenching manner was assayed using the Stern–Volmer equation. In the Stern–Volmer plots of compound 5w (Figure 3D), the lines at different temperatures presented a good linear, which illustrated only one quenching manner in their binding process. Although the quenching constant (Ksv) values were slightly proportional to temperature, the quench rate constant (Kq) values at different temperatures were all higher than 2 × 10^10 L mol^−1 S^−1, which is the maximum scattering collision quenching constant (Table 2). […] In addition, the number of binding sites (n) was obtained to be about one, meaning there was only one binding site between compound 5w and tyrosinase (Table 2).
According to a previous report, the fluorescence quenching titration was run. In total, 1 μL of 5w solution was progressively titrated into 2 mL of tyrosinase (0.17 mg/mL), followed by fluorescence spectra determination (λex = 280 nm) at temperatures of 298, 303, and 308 K, respectively. The quenching parameters were obtained using the Stern–Volmer equation.
Target sequence in this assay (C7FF04 1-392 limits assumed): as the sequence (C7FF04 1-392) above

tyrosinase [7] = target: T2, tyrosinase; test: Inhibition kinetics (Lineweaver–Burk plots); type: biochemical, mushroom
Protocol: To understand the inhibition mechanism of this kind of compound on tyrosinase, the inhibition kinetics of the preferable compound 5w were investigated. […] With the increasing concentrations of 5w, the Y-intercept of corresponding lines increased and the X-intercept decreased, meaning the decrease of Vmax and Km.
The kinetics studies of 5w were conducted using the above experimental procedure. The absorbance changes in the mixture containing 5w (0, 4, 8, and 16 μM), tyrosinase (66.7 U/mL), and L-DOPA (2, 4, 6, and 8 mM) were recorded, respectively. The data were analyzed using Lineweaver–Burk plots.
Target sequence in this assay (C7FF04 1-392 limits assumed): as the sequence (C7FF04 1-392) above

tyrosinase [8] = target: T2, tyrosinase; test: Three-dimensional fluorescence spectra; design: species or system mushroom; conditions: 5w 8.5 μM
Protocol: Three-dimensional fluorescence spectra were employed to monitor the effects of compound 5w on the conformation and microenvironment changes in tyrosinase. In the 3D fluorescence spectra of tyrosinase (Figure 5A), two characteristic peaks 1 and 2 appeared, which corresponded to Tyr and Trp residues and polypeptide strand transition, respectively.
Based on a previous report, the 3D fluorescence spectra of tyrosinase (0.17 mg/mL) and tyrosinase–compound 5w mixture were measured, respectively, at room temperature. The test wavelengths were 200–400 nm.
Target sequence in this assay (C7FF04 1-392 limits assumed): as the sequence (C7FF04 1-392) above

SMILES: O=C(CN1C(=O)S/C(=C\c2ccccc2Br)C1=O)NCCc1c[nH]c2ccccc12 [5k]
inhibition at 32 µM (Mushroom tyrosinase): 31.7%

SMILES: O=C(CN1C(=O)S/C(=C\c2cccc(O)c2)C1=O)NCCc1c[nH]c2ccccc12 [5u]
inhibition at 32 µM (Mushroom tyrosinase): 36.2%

SMILES: O=C(CN1C(=O)S/C(=C\c2cccc(F)c2)C1=O)NCCc1c[nH]c2ccccc12 [5f]
inhibition at 32 µM (Mushroom tyrosinase): 32.6%

SMILES: COc1ccc(/C=C2\SC(=O)N(CC(=O)NCCc3c[nH]c4ccccc34)C2=O)cc1 [5s]
inhibition at 32 µM (Mushroom tyrosinase): 1%

SMILES: Cc1ccc(/C=C2\SC(=O)N(CC(=O)NCCc3c[nH]c4ccccc34)C2=O)cc1 [5d]
inhibition at 32 µM (Mushroom tyrosinase): 15.1%

SMILES: O=C(CN1C(=O)S/C(=C\c2ccc(F)cc2)C1=O)NCCc1c[nH]c2ccccc12 [5g]
inhibition at 32 µM (Mushroom tyrosinase): 27.4%

SMILES: O=C(CN1C(=O)S/C(=C\c2ccc([N+](=O)[O-])cc2)C1=O)NCCc1c[nH]c2ccccc12 [5z]
inhibition at 32 µM (Mushroom tyrosinase): 19.1%

SMILES: N#Cc1ccc(/C=C2\SC(=O)N(CC(=O)NCCc3c[nH]c4ccccc34)C2=O)cc1 [5x]
inhibition at 32 µM (Mushroom tyrosinase): 24.6%

SMILES: O=C(CN1C(=O)S/C(=C\c2ccccc2Cl)C1=O)NCCc1c[nH]c2ccccc12 [5h]
inhibition at 32 µM (Mushroom tyrosinase): 16.8%

SMILES: Cc1cccc(/C=C2\SC(=O)N(CC(=O)NCCc3c[nH]c4ccccc34)C2=O)c1 [5c]
inhibition at 32 µM (Mushroom tyrosinase): 33.2%

SMILES: O=C(CN1C(=O)S/C(=C\c2ccc(O)cc2)C1=O)NCCc1c[nH]c2ccccc12 [5v]
inhibition at 32 µM (Mushroom tyrosinase): 24.6%

SMILES: O=C(CN1C(=O)S/C(=C\c2ccccc2)C1=O)NCCc1c[nH]c2ccccc12 [5a]
inhibition at 32 µM (Mushroom tyrosinase): 14.2%

SMILES: O=c1cc(CO)occ1O [Kojic acid, reference compound]
melanogenesis in B16F10 cells [1]: could inhibit
grayscale values of whole embryos ([2]; Image J): decrease in grayscale values
pigmentation of embryo (eyes, yolk sac, notum) [2]: pigmentation decrease
tyrosinase activity in zebrafish [3]: could reduce the tyrosinase activity in zebrafish
effect on cells' viability (B16F10 cells): obvious effects
cellular tyrosinase activity [4]: could inhibit

SMILES: COc1cccc(/C=C2\SC(=O)N(CC(=O)NCCc3c[nH]c4ccccc34)C2=O)c1 [5r]
inhibition at 32 µM (Mushroom tyrosinase): 2%

SMILES: O=C(CN1C(=O)S/C(=C\c2cccc(Cl)c2)C1=O)NCCc1c[nH]c2ccccc12 [5i]
inhibition at 32 µM (Mushroom tyrosinase): 37.6%

SMILES: COc1ccccc1/C=C1\SC(=O)N(CC(=O)NCCc2c[nH]c3ccccc23)C1=O [5q]
inhibition at 32 µM (Mushroom tyrosinase): 1%

SMILES: N#Cc1cccc(/C=C2\SC(=O)N(CC(=O)NCCc3c[nH]c4ccccc34)C2=O)c1 [5w]
anti-melanogenesis activity compared with kojic acid [1]: obvious higher
melanogenesis in B16F10 cells [1]: could inhibit
Random Coil (%) (tyrosinase [5]; [Enzyme]: [5w] 1: 1): 32.5%
α-Helix (%) (tyrosinase [5]; [Enzyme]: [5w] 1: 1): 8.8%
β-Sheet (%) (tyrosinase [5]; [Enzyme]: [5w] 1: 1): 33.6%
β-Turn (%) (tyrosinase [5]; [Enzyme]: [5w] 1: 1): 19.9%
Random Coil (%) (tyrosinase [5]; [Enzyme]: [5w] 1: 2): 34.5%
α-Helix (%) (tyrosinase [5]; [Enzyme]: [5w] 1: 2): 8.9%
β-Sheet (%) (tyrosinase [5]; [Enzyme]: [5w] 1: 2): 33.1%
β-Turn (%) (tyrosinase [5]; [Enzyme]: [5w] 1: 2): 20.0%
Random Coil (%) (tyrosinase [5]; [Enzyme]: [5w] 1: 3): 35.5%
α-Helix (%) (tyrosinase [5]; [Enzyme]: [5w] 1: 3): 9.0%
β-Sheet (%) (tyrosinase [5]; [Enzyme]: [5w] 1: 3): 32.7%
β-Turn (%) (tyrosinase [5]; [Enzyme]: [5w] 1: 3): 20.1%
fluorescence quenching process (tyrosinase [6]): static quenching process
KSV (tyrosinase [6]; T 298 K): 3.77 ×10^4 Lmol^−1
Kq (tyrosinase [6]; T 298 K): 3.77 ×10^12 Lmol^−1
n (number of binding sites) (tyrosinase [6]; T 298 K): 0.72
KSV (tyrosinase [6]; T 303 K): 3.84 ×10^4 Lmol^−1
Kq (tyrosinase [6]; T 303 K): 3.84 ×10^12 Lmol^−1
n (number of binding sites) (tyrosinase [6]; T 303 K): 0.74
KSV (tyrosinase [6]; T 308 K): 4.47 ×10^4 Lmol^−1
Kq (tyrosinase [6]; T 308 K): 4.47 ×10^12 Lmol^−1
n (number of binding sites) (tyrosinase [6]; T 308 K): 0.82
quench rate constant (Kq) (tyrosinase [6]; at different temperatures (298, 303, 308 K)): higher than 2 × 10^10 L mol^−1 S^−1
decrease in grayscale values compared with kojic acid ([2]; Image J): displayed a higher decrease
grayscale values of whole embryos ([2]; Image J): decrease in grayscale values
pigmentation of embryo (eyes, yolk sac, notum) [2]: pigmentation decrease
inhibition type (tyrosinase [7]; Lineweaver–Burk plots): mixed-type tyrosinase inhibitor
Ki (tyrosinase [7]; from plots of slope vs. inhibitor concentration, read-out: inhibition constant (Ki)): 11.7 µM
anti-tyrosinase activity in zebrafish compared with kojic acid ([3]; concentration of 10 μM): higher anti-tyrosinase activity than kojic acid
tyrosinase activity in zebrafish [3]: could reduce the tyrosinase activity in zebrafish
effect on cells' viability (B16F10 cells): obvious effects
cellular anti-tyrosinase activity compared with kojic acid [4]: obvious higher
cellular tyrosinase activity [4]: could inhibit
IC50 (Mushroom tyrosinase): 11.2 µM
inhibition at 32 µM (Mushroom tyrosinase): > 70%
3D fluorescence characteristic peaks 1 and 2 of tyrosinase (tyrosinase [8]): reduced significantly accompanied by a slight shift

SMILES: O=C(CN1C(=O)S/C(=C\c2ccccc2C(F)(F)F)C1=O)NCCc1c[nH]c2ccccc12 [5n]
inhibition at 32 µM (Mushroom tyrosinase): 3.8%

The remaining lines, values ahead:

inhibition at 32 µM (Mushroom tyrosinase): 19.3%
SMILES: Cc1ccccc1/C=C1\SC(=O)N(CC(=O)NCCc2c[nH]c3ccccc23)C1=O [5b]

inhibition at 32 µM (Mushroom tyrosinase): 16.5%
SMILES: O=C(CN1C(=O)S/C(=C\c2ccccc2F)C1=O)NCCc1c[nH]c2ccccc12 [5e]

inhibition at 32 µM (Mushroom tyrosinase): 4.5%
SMILES: O=C(CN1C(=O)S/C(=C\c2cccc(C(F)(F)F)c2)C1=O)NCCc1c[nH]c2ccccc12 [5o]

inhibition at 32 µM (Mushroom tyrosinase): 19.8%
SMILES: O=C(CN1C(=O)S/C(=C\c2cccc([N+](=O)[O-])c2)C1=O)NCCc1c[nH]c2ccccc12 [5y]

IC50 (Mushroom tyrosinase): 13.3 µM
inhibition at 32 µM (Mushroom tyrosinase): > 70%
SMILES: O=C(CN1C(=O)S/C(=C\c2cccc(Br)c2)C1=O)NCCc1c[nH]c2ccccc12 [5l]

inhibition at 32 µM (Mushroom tyrosinase): 36.6%
SMILES: O=C(CN1C(=O)S/C(=C\c2ccc(Cl)cc2)C1=O)NCCc1c[nH]c2ccccc12 [5j]

inhibition at 32 µM (Mushroom tyrosinase): 26.9%
SMILES: O=C(CN1C(=O)S/C(=C\c2ccccc2O)C1=O)NCCc1c[nH]c2ccccc12 [5t]

inhibition at 32 µM (Mushroom tyrosinase): 19.5%
SMILES: O=C(CN1C(=O)S/C(=C\c2ccc(Br)cc2)C1=O)NCCc1c[nH]c2ccccc12 [5m]

inhibition at 32 µM (Mushroom tyrosinase): 3%
SMILES: O=C(CN1C(=O)S/C(=C\c2ccc(C(F)(F)F)cc2)C1=O)NCCc1c[nH]c2ccccc12 [5p]
